From patent US4985445A, “Cancer cell metastasis inhibitors and novel compounds” (Meiji Seika Kaisha, Ltd., priority 1988, dated 1991)

Test system: B16 subline of high pulmonary metastatic potential
Experiment: Inhibition of pulmonary metastasis of B16 subline pretreated with compound and injected i.v. into BDF1 mice
Assay type: in vivo, murine; mouse BDF1
Conditions: for Inhibition of metastasis to the lungs (in words): B16 subline, BDF1 mice
Method: Based on the method described priviously (Method in Cancer Research, 15, 399-439, 1978), a subline of high metastatic potential (high pulmonary colonization) was selected from murine melanoma B16 by repeating the i.v. transplantation of the tumor cells in BDF1 mice and the isolation of pulmonary metastatic clones.
Evaluation of the metastasis inhibiting activity was performed based on the method described previously (Proc. Natl Acad. Sci. USA, 83, 1752-1756, 1986, Cancer Research, 46, 858-862, 1986).
Firstly, the B16 subline of high metastatic potential was inoculated into Dulbecco's ME medium (DME medium) supplemented with 10% bovine fetal serum and the compound represented by general formula (I) described above was added thereto.
The B16 subline of high pulmonary metastatic potential was inoculated into DME medium supplemented with 10% bovine fetal serum and 30, 100 or 300 μg/ml of N (3-phenylpropyl)-1-deoxynojirimycin was added thereto followed by incubation at 37° C. for 3 days in the presence of 5% CO2.
Inhibition of metastasis was examined in a manner similar to Test Example 2 except that N-(3-phenyl-2-propenyl)-1-deoxy-nojirimycin and N-(3-p-chlorophenyl-3-methyl-2-propenyl)-1-deoxynojirimycin were used instead of N-(3-phenylpropyl)-1-deoxynojirimycin in Test Example 2. In this test example, however, 2.5×10^5 cells each of the B16 subline were transplanted to 3 mice for each group.
The B16 subline of high pulmonary metastatic potential was inoculated into DME medium supplemented with 10% bovine fetal serum and 30 μg/ml of N-(4-phenoxy-trans-2-butenyl)-1-deoxynojirimycin was added thereto followed by incubation at 37° C. for 3 days in the presence of 5% CO2. […] The number of colonies of the B16 subline formed on the surface of and in the lung was counted.
Inhibition of metastasis was examined in a manner similar to Test Example 5 except that N-(2-phenoxyethyl)-1-deoxynojirimycin was used instead of N-(4-phenoxy-trans-2-butenyl)-1-deoxynojirimycin in Test Example 5.
The B16 sibline of high pulmonary metastatic potential was inoculated into DME medium supplemented with 10% bovine fetal serum and 10 μg/ml of D-glucaro-δ-lactam calcium salt was added thereto followed by incubation at 37° C. for 3 days in the presence of 5% CO2. […] The number of the colonies formed on the surface of and in the lung was counted.
Inhibition of metastasis was examined in a manner similar to Test Example 8 except that D-glucaro-δ-lactam methyl ester and D-glucaro-δ-lactam ethyl ester were used instead of D-glucaro-δ-lactam calcium salt in Test Example 8.
The B16 subline of high pulmonary metastatic potential was inoculated into DME medium supplemented with 10% bovine fetal serum and 10 μg/ml of 2,6-di-O-(acetylsalicyloyl)-D-gluco-δ-lactam was added thereto followed by incubation at 37° C. for 3 days in the presence of 5% CO2.
The B16 subline of high pulmonary metastatic potential was inoculated into DME medium supplemented with 10% bovine fetal serum and 30 μg/ml of 6-O-triphenylmethyl-D-gluco-δ-lactam was added thereto followed by incubation at 37° C. for 3 days in the presence of 5% CO2.
The B16 subline of high pulmonary metastatic potential was inoculated into DME medium supplemented with 10% bovine fetal serum and 30 μg/ml of 1-deoxynojirimycin was added thereto followed by incubation at 37° C. for 3 days in the presence of 5% CO2.

Row | Structure (SMILES) | Inhibition of metastasis to the lungs (in words) | Pulmonary Metastasis (Mean ± Standard Deviation) (Table 15, 30 μg/ml, 3 mice, None 119 ± 37) [no.] | Pulmonary Metastasis (Mean ± Standard Deviation) (Table 7, 100 μg/ml, None 86 ± 22.1) [no.] | Pulmonary Metastasis (Mean ± Standard Deviation) (Table 10, 30 μg/ml, None 82 ± 11.2) [no.]
1 | OC[C@H]1NC[C@H](O)[C@@H](O)[C@@H]1O [1-Deoxynojirimycin, 1-deoxynojirimycin] | the number of colonies on the surface of and in the lungs was markedly inhibited | 31 ± 11 |  | 
2 | CC(=CCN1C[C@H](O)[C@@H](O)[C@H](O)[C@H]1CO)c1ccc(Cl)cc1 [N-(3-p-chlorophenyl-3-methyl-2-propenyl)-1-deoxynojirimycin] | markedly inhibited |  |  | 
3 | OC[C@@H]1[C@@H](O)[C@H](O)[C@@H](O)CN1CCOc1ccccc1 [N-(2-Phenoxyethyl)-1-deoxynojirimycin, N-(2-phenoxyethyl)-1-deoxynojirimycin] | markedly inhibited |  | 7 ± 2.1 | 
4 | CCOC(=O)[C@H]1NC(=O)[C@H](O)[C@@H](O)[C@@H]1O [D-Glucaro-δ-lactam ethyl ester, D-glucaro-δ-lactam ethyl ester] | markedly inhibited |  |  | 13 ± 5.4
